Test results published in patent publication EP0565593B1, “REDUCING PESTICIDAL INTERACTIONS IN CROPS” (priority 1990, dated 1992).
Several values for one entry are separate records, joined by “and”; a condition that tells them apart may be missing. Equal entries are not always repeated.

Columns and labels:
[1] = system: velvetleaf (Abutilon theophrasti); assay: Greenhouse test, combination of Procedures II and III (Examples 1, 2; Tables 1, 2); format: in vivo; settings: for Percent Injury VELE: 7 weeks; for % Injury VELE: 3 weeks
[2] = system: VELE (velvetleaf); assay: Greenhouse test Procedure II (Example 4; Table 4); format: in vivo, Abutilon theophrasti; settings: 3 weeks
Procedure, shortened: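 Herbicide, insecticide and antidote in acetone were track-sprayed sequentially onto a soil cover layer, incorporated and spread over seeded beds in silt loam. Initial overhead irrigation equal to 0.6 cm rainfall, then sub-irrigation in the greenhouse. Injury was rated 3 weeks after treatment against untreated and herbicide-only controls.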

[3] = system: VELE (velvetleaf); assay: Greenhouse test Procedure I with PPI or POE herbicide and foliar insecticide (Example 5; Table 5); format: in vivo, Abutilon theophrasti; settings: 3 weeks
Method: (§1) Containers were filled and compacted with a fumigated silt loam top soil to a depth of about 1.3 cm from the top of the container. A first container was designated as an untreated control, a second container was designated as a herbicide control, and a third container was designated as a herbicide + antidote test container. Each of the containers was seeded with a crop species. A measured amount of herbicide dispersed or dissolved in acetone was applied to a measured quantity of soil. To this same quantity of soil treated with herbicide, there was added a measured amount of antidote dispersed or dissolved in acetone. The quantity of soil treated with the herbicide and antidote was thoroughly mixed to incorporate the herbicide and antidote in the soil uniformly. The seed bed in the third container of soil was covered with the soil treated with the herbicide and antidote and the container was leveled. For each test series, the seed beds of the first and second containers were likewise covered by soil layers. the cover layer of the first container was not treated with herbicide or antidote.
(§2) Insecticide application was made as described in the tests in the examples below. The containers were then placed on a bench in a greenhouse and sub-irrigated as required for the duration of the test.
(§3) Said herbicide and antidote were sequentially pipetted onto cover layers, which were spread over the seed beds and subirrigated as in Procedure I and allowed to grow to a height of about 10 cm over a period of 11 days. Herbicide No. 1 and Insecticide No. 2 were then sequentially sprayed on the plant foliage. Observations were made three (3) weeks after initial treatment, 10 days after foliar treatment).

[4] = system: Corn; assay: as above; format: in vivo; settings: for % Injury Corn: 3 weeks
Method: as §1, §2, §3

[5] = system: Corn; assay: Greenhouse test, combination of Procedures II and III: insecticide in-furrow or in cover layer, herbicide and antidote incorporated in cover layer (Examples 1-3, 6; Tables 1-3, 6); format: in vivo; settings: 7 weeks
[6] = Antidote 1 0.14 + Herbicide 1 0.14 Kg/Ha
[7] = Antidote 1 0.56 + Herbicide 1 0.56 Kg/Ha
[8] = Antidote 1 2.24 + Herbicide 1 2.24 Kg/Ha
[9] = Antidote 1 0.14 + Herbicide 1 0.14 Kg/Ha PPI
[10] = Antidote 1 0.56 + Herbicide 1 0.56 Kg/Ha PPI
[11] = Antidote 1 2.24 + Herbicide 1 2.24 Kg/Ha PPI
[12] = Insecticide 2 1.68 (foliar) + Antidote 1 0.14 + Herbicide 1 0.14 Kg/Ha PPI
[13] = Insecticide 2 1.68 (foliar) + Antidote 1 2.24 + Herbicide 1 2.24 Kg/Ha PPI
[14] = Insecticide 2 1.68 (foliar) + Antidote 1 2.24 Kg/Ha PPI, no herbicide

Structure (SMILES): CC1(C)OC(c2ccco2)CN1C(=O)C(Cl)Cl (stereo not drawn) [Antidote No. 1, Oxazolidine, 3-(dichloroacetyl)-2,2-dimethyl-5-(2-furanyl)-]
- Percent Injury VELE [1, 6]: 88%
- Percent Injury VELE [1, 7]: 92%
- Percent Injury VELE [1, 8]: 93%
- Percent Injury VELE ([1]; Antidote 1 2.24 Kg/Ha alone): 0%
- % Injury VELE ([1]; Ex. 2: Antidote 1 0.14 + Herbicide 1 0.14 Kg/Ha): 86%
- % Injury VELE ([1]; Ex. 2: Antidote 1 0.42 + Herbicide 1 0.14 Kg/Ha): 93%
- % Injury VELE ([1]; Ex. 2: Antidote 1 0.56 + Herbicide 1 0.56 Kg/Ha): 90%
- % Injury VELE ([1]; Ex. 2: Antidote 1 1.68 + Herbicide 1 0.56 Kg/Ha): 95%
- % Injury VELE ([1]; Ex. 2: Insecticide 1 0.11 kg/305m + Antidote 1 0.14 + Herbicide 1 0.14 Kg/Ha): 78%
- % Injury VELE ([1]; Ex. 2: Insecticide 1 0.11 kg/305m + Antidote 1 0.42 + Herbicide 1 0.14 Kg/Ha): 84%
- % Injury VELE ([1]; Ex. 2: Insecticide 1 0.11 kg/305m + Antidote 1 0.56 + Herbicide 1 0.56 Kg/Ha): 93%
- % Injury VELE ([1]; Ex. 2: Insecticide 1 0.11 kg/305m + Antidote 1 1.68 + Herbicide 1 0.56 Kg/Ha): 95%
- % Injury VELE ([1]; Ex. 2: Insecticide 1 0.23 Kg/305m (ditto mark) + Antidote 1 0.22 + Herbicide 2 4.48 Kg/Ha (so in the source)): 36% and 38%
- % Injury VELE ([1]; Ex. 2: Insecticide 1 0.23 Kg/305m + Antidote 1 0.14 + Herbicide 1 0.14 Kg/Ha): 83%
- % Injury VELE ([1]; Ex. 2: Insecticide 1 0.23 Kg/305m + Antidote 1 0.22 + Herbicide 1 0.14 + Herbicide 2 4.48 Kg/Ha): 98%
- % Injury VELE ([1]; Ex. 2: Insecticide 1 0.23 Kg/305m + Antidote 1 0.42 + Herbicide 1 0.14 Kg/Ha): 90%
- % Injury VELE ([1]; Ex. 2: Insecticide 1 0.23 Kg/305m + Antidote 1 0.56 + Herbicide 1 0.56 Kg/Ha): 95%
- % Injury VELE ([1]; Ex. 2: Insecticide 1 0.23 Kg/305m + Antidote 1 1.68 + Herbicide 1 0.56 Kg/Ha): 93%
- % Injury VELE ([1]; Ex. 2: Insecticide 2 1.68 kg/Ha + Antidote 1 0.14 + Herbicide 1 0.14 Kg/Ha (so in the source)): 91% and 84% and 79%
- % Injury VELE ([1]; Ex. 2: Insecticide 2 1.68 kg/Ha + Antidote 1 0.56 + Herbicide 1 0.56 Kg/Ha (so in the source)): 90% and 89% and 91%
- % Injury VELE ([1]; Ex. 2: Insecticide 2 3.36 Kg/Ha + Antidote 1 0.14 + Herbicide 1 0.14 Kg/Ha (so in the source)): 81% and 79% and 89%
- % Injury VELE ([1]; Ex. 2: Insecticide 2 3.36 Kg/Ha + Antidote 1 0.22 + Herbicide 1 0.14 + Herbicide 2 4.48 Kg/Ha): 83%
- % Injury VELE ([1]; Ex. 2: Insecticide 2 3.36 Kg/Ha + Antidote 1 0.22 + Herbicide 2 4.48 Kg/Ha): 11%
- % Injury VELE ([1]; Ex. 2: Insecticide 2 3.36 Kg/Ha + Antidote 1 0.56 + Herbicide 1 0.56 Kg/Ha (so in the source)): 95%
- Percent Injury VELE ([1]; Insecticide 1 0.23 kg/305m + Antidote 1 0.14 + Herbicide 1 0.14 Kg/Ha): 87%
- Percent Injury VELE ([1]; Insecticide 1 0.23 kg/305m + Antidote 1 0.14 Kg/Ha, no herbicide): 0%
- Percent Injury VELE ([1]; Insecticide 1 0.23 kg/305m + Antidote 1 0.56 + Herbicide 1 0.56 Kg/Ha): 90%
- Percent Injury VELE ([1]; Insecticide 1 0.23 kg/305m + Antidote 1 0.56 Kg/Ha, no herbicide): 0%
- Percent Injury VELE ([1]; Insecticide 1 0.23 kg/305m + Antidote 1 2.24 + Herbicide 1 2.24 Kg/Ha): 92%
- Percent Injury VELE ([1]; Insecticide 1 0.23 kg/305m + Antidote 1 2.24 Kg/Ha, no herbicide): 0%
- Percent Injury VELE ([1]; Insecticide 1 (H2O) (crystals scattered in-furrow) + Antidote 1 2 + Herbicide 1 2 Kg/Ha): 95%
- Percent Injury VELE ([1]; Insecticide 1 (H2O) (crystals scattered in-furrow) + Antidote 1 2 Kg/Ha): 0%
- Percent Injury VELE ([1]; Insecticide 2 3.36 kg/ha + Antidote 1 0.14 + Herbicide 1 0.14 Kg/Ha): 83%
- Percent Injury VELE ([1]; Insecticide 2 3.36 kg/ha + Antidote 1 0.14 Kg/Ha, no herbicide): 78%
- Percent Injury VELE ([1]; Insecticide 2 3.36 kg/ha + Antidote 1 0.56 + Herbicide 1 0.56 Kg/Ha): 92%
- Percent Injury VELE ([1]; Insecticide 2 3.36 kg/ha + Antidote 1 0.56 Kg/Ha, no herbicide): 33%
- Percent Injury VELE ([1]; Insecticide 2 3.36 kg/ha + Antidote 1 2.24 + Herbicide 1 2.24 Kg/Ha): 95%
- Percent Injury VELE ([1]; Insecticide 2 3.36 kg/ha + Antidote 1 2.24 Kg/Ha, no herbicide): 0%
- % Injury VELE ([2]; Antidote 1 0.07 + Herbicide 1 0.07 kg/Ha): 8%
- % Injury VELE ([2]; Antidote 1 0.07 + Herbicide 4 0.07 kg/Ha): 0%
- % Injury VELE ([2]; Antidote 1 0.07 + Herbicide 5 0.07 kg/Ha): 68%
- % Injury VELE ([2]; Antidote 1 0.07 + Herbicide 6 0.07 kg/Ha): 5%
- % Injury VELE ([2]; Antidote 1 0.14 + Herbicide 1 0.14 kg/Ha): 43%
- % Injury VELE ([2]; Antidote 1 0.14 + Herbicide 4 0.14 kg/Ha): 30%
- % Injury VELE ([2]; Antidote 1 0.14 + Herbicide 5 0.14 kg/Ha): 68%
- % Injury VELE ([2]; Antidote 1 0.14 + Herbicide 6 0.14 kg/Ha): 28%
- % Injury VELE ([2]; Insecticide 2 3.36 + Antidote 1 0.014 + Herbicide 1 0.14 kg/Ha): 53%
- % Injury VELE ([2]; Insecticide 2 3.36 + Antidote 1 0.07 + Herbicide 1 0.07 kg/Ha): 23%
- % Injury VELE ([2]; Insecticide 2 3.36 + Antidote 1 0.07 + Herbicide 4 0.07 kg/Ha): 0%
- % Injury VELE ([2]; Insecticide 2 3.36 + Antidote 1 0.07 + Herbicide 5 0.07 kg/Ha): 55%
- % Injury VELE ([2]; Insecticide 2 3.36 + Antidote 1 0.07 + Herbicide 6 0.07 kg/Ha): 15%
- % Injury VELE ([2]; Insecticide 2 3.36 + Antidote 1 0.14 + Herbicide 4 0.14 kg/Ha): 78%
- % Injury VELE ([2]; Insecticide 2 3.36 + Antidote 1 0.14 + Herbicide 5 0.14 kg/Ha): 83%
- % Injury VELE ([2]; Insecticide 2 3.36 + Antidote 1 0.14 + Herbicide 6 0.14 kg/Ha): 40%
- % Injury VELE [3, 9]: 85%
- % Injury VELE [3, 10]: 80%
- % Injury VELE [3, 11]: 93%
- % Injury VELE [3, 12]: 90%
- % Injury VELE ([3]; Insecticide 2 1.68 (foliar) + Antidote 1 0.56 + Herbicide 1 0.56 Kg/Ha PPI): 93%
- % Injury VELE [3, 13]: 93%
- % Injury VELE [3, 14]: 0%
- % Injury Corn [4, 9]: 0%
- % Injury Corn [4, 10]: 5%
- % Injury Corn [4, 11]: 0%
- safening ([4]; Ex. 5: PPI Herbicide No. 1 with or without Insecticide No. 2): safened PPI herbicide treatments
- % Injury Corn [4, 12]: 0%
- % Injury Corn [4, 13]: 0%
- % Injury Corn [4, 14]: 0%
- Percent Injury Corn [5, 6]: 2%
- Percent Injury Corn [5, 7]: 5%
- Percent Injury Corn [5, 8]: 15%
- Percent Injury Corn ([5]; Antidote 1 2.24 Kg/Ha alone): 0%
